Patent publication US10517910B2 (priority 2015, dated 2019)
Counter-ions that a name gives are not always drawn.

Test system: HuH-7 cells infected with JX-594 virus
Type: cell-based

COc1cccc2c1C(=O)c1c(O)c3c(c(O)c1C2=O)C[C@@](O)(C(=O)CO)C[C@@H]3O[C@H]1C[C@H](N)[C@H](O)[C@H](C)O1 [Adriamicyn, Doxorubicin hydrochloride]
JX-594 viral replication in vitro: decrease
viral output: decreased
